Test [1] has as its target delta receptor (Homo sapiens, UniProt P41143). Put plainly: Competitive analysis vs 3H-Bremazocine, delta receptor. The class given is binding.
Test [2] addresses mu receptor (Homo sapiens, UniProt P35372). Put plainly: Competitive analysis vs 3H-Bremazocine, mu receptor. The class given is binding.
The target in test [3] is κ receptor (Homo sapiens, UniProt P41145). Kind of test: Competitive analysis vs 3H-Bremazocine, κ receptor. Format: binding. The following applies: reference compound 3H-Bremazocine.
Test [4] has as its target κ receptor (Mus musculus, UniProt P33534). The following applies: experimental value of the reference opioid; cited from earlier work.
The target of test [5] is δ receptor (Mus musculus, UniProt P32300). The following applies: experimental value of the reference opioid; cited from earlier work.
Test [6] deals with μ receptor (Rattus norvegicus, UniProt P33535). The following applies: experimental value of the reference opioid; cited from earlier work.

`Oc1cccc(-n2cnnc2-c2cccc(-c3ccccc3)c2)c1` [DST3-2]: the Ki stood at 140 nM in test [1] (competitive analysis, 1.64 nM 3H-Bremazocine, dose response curve FIG. 7A, read-out: Representative Ki δ (delta binding affinity)) and 1000 nM in test [2] (competitive analysis, 1.64 nM 3H-Bremazocine, dose response curve FIG. 7B, read-out: Representative Ki μ). Besides, in test [1] (competitive analysis, reference compound 3H-Bremazocine), the “% Inhibition δ” value came to 84%. Besides, the delta/mu selectivity in test [1] (ratio delta vs mu binding) is reported as 10/1. Also, the “% Inhibition μ” value in test [2] was 84%. For the same molecule, the “% Inhibition κ” value in test [3] is given as 42%.
On to `Oc1ccc2c3c1O[C@H]1c4[nH]c5ccccc5c4C[C@@]4(O)[C@@H](C2)N(CC2CC2)CC[C@]314` [NTI, naltrindole], for which the “experimental affinity κ receptor (value in parenthesis)” value in test [4] is listed as 7.18. In addition, the “experimental affinity δ receptor (value in parenthesis)” value in test [5] is given as 10.70.
On to `CN1CC[C@]23c4c5ccc(O)c4OC2C(=O)C2(Cc4ccccc4C2)C[C@@]3(O)C1C5` (some centres unmarked) [SIOM, spiroindanyloxymorphone], for which, in test [6], the “experimental affinity μ receptor (value in parenthesis)” value was 7.48. Also, in test [4], the “experimental affinity κ receptor (value in parenthesis)” value was less than 6.00. Besides, in test [5], the “experimental affinity δ receptor (value in parenthesis)” value was 8.77.

The record behind these values is patent publication US7164021B2, “Opiate analogs selective for the δ-opioid receptor” (The Curators of The University of Missouri, priority 2002, dated 2007).
